Experimental data: US8722580B2, “Agent for inhibiting cytokinin signaling” (Sumitomo Chemical Company, Limited, priority 2006, dated 2014)

Legend:
Arabidopsis thaliana [1] = assay: Root growth-promoting activity test (Example 9); assay type: in vivo; settings: main root length vs control section, 22° C., 10 days
Method: (§1) Enshi standard medium having the following composition (see Table 10) was prepared. To cluster tubes was dispensed each 4 μl of a solution of a chemical substance in DMSO to a final concentration of 0.001 ppm to 10 ppm, and then, was dispensed each 600 μl of the sterilized Enshi standard medium. Then the resulting solution was well mixed. In each of the cluster tubes, 10-20 seeds of Arabidopsis thaliana were sown, and cultured at 22° C. for 10 days in the light. Then, the length of main roots (average main roots) generated from the seeds of Arabidopsis thaliana was measured. An average of eight repeats was determined, and a root growth rate was determined according to the following equation.
(§2) Root growth rate (%)=(Average main root length in chemical substance-treated section)/(Average main root length in control section)×100

cytokinin receptor CRE1 = target: T1, cytokinin receptor CRE1 (Arabidopsis thaliana, UniProt Q9C5U0, S567G/T1018A); assay: Inhibition of intracellular signaling from plant-derived cytokinin receptor, growth of transformed yeast cell TM182-CRE1; assay type: cell-based; settings: trans-zeatin 0.6 ppm, chemical substance 2 ppm; for Relative growth rate (%) in test section of test substance to control section, Transformed cell TM182-CRE1: 30° C., 24 hours, turbidity OD 600; for Activity (%) of test substance for inhibiting intracellular signaling from plant-derived cytokinin receptor of cell: = 100 − relative growth rate of TM182-CRE1
T1 construct: expressed in transfected cells; host or cells: Saccharomyces cerevisiae TM182 (sln1Δ) transformed with p415CYC-CRE1
Method: (§3) The transformed cell TM182-CRE1 and the transformed cell TM182-p415CYC1 obtained in Example 6 were each inoculated in 10 ml of a DOLU+Gal medium, and preincubated at 30° C. for 18 hours to obtain a preincubation liquid for each of the transformed cells. The preincubation liquid was diluted with a DOLU+Glu medium for the transformed cell TM182-CRE1 or with a DOLU+Gal medium for the transformed cell TM182-p415CYC1 until OD600=0.1 was reached, to obtain a preincubation dilution for each of the transformed cells.
(§4) To each well of a 96-well plate was added 1 μl of a 200 ppm solution of a test substance in dimethyl sulfoxide (DMSO) to prepare an Assay plate. At the same time, as controls, only 1 μl of DMSO was added to a part of wells. An assay plate for the transformed cell TM182-CRE1 and an assay plate for the transformed cell TM182-p415CYC1 were prepared.
(§5) A 10,000 ppm solution of trans-zeatin (cytokinin) in DMSO was 50-fold diluted with a DOLU+Gul medium to 200 ppm. The 200 ppm trans-zeatin solution was added in an amount of 3/1,000 volume to each of the above-described preincubation dilution to prepare each preincubation dilution containing trans-zeatin at 0.6 ppm. The 0.6 ppm preincubation dilution was added in an amount of 100 μl to each wells of the assay plate for each transformed cell. The plates were incubated at 30° C. for 24 hours. Then, turbidity (OD 600) of each well was measured by using a plate reader. The activity of the test substance for inhibiting intracellular signaling from a plant-derived cytokinin receptor of a cell was tested by comparing the measured turbidity with the turbidity of the control well.
(§6) (Relative growth rate in test section to control section) [%]=[(Turbidity in test section)−(Turbidity in blank)]/[(Turbidity in control section)−(Turbidity in blank)]×100 (Activity of inhibiting intracellular signaling from plant-derived cytokinin receptor of cell) [%]=100−(Relative growth rate in test section to control section)
(§7) In all cases, the existing concentration of trans-zeatin was adjusted to 0.6 ppm and the existing concentration of a chemical substance was adjusted to 2 ppm.
(§8) In all cases, the existing concentration of trans-zeatin was adjusted to 0.6 ppm and the existing concentration of a chemical substance was adjusted to 2 […].

[2] = test system: transformed cell TM182-p415CYC1; assay: Control growth test with transformed yeast cell TM182-p415CYC1 (toxicity to yeast); assay type: cell-based; settings: trans-zeatin 0.6 ppm; chemical substance 2 ppm; 30° C., 24 hours; turbidity OD 600
Method: as §3, §4, §5, §6, §7, §8

Arabidopsis thaliana [3] = assay: Root growth-promoting activity test (Example 22); assay type: in vivo; settings: main root length vs control section, 22° C., 10 days
Method: as §1, with “18)” for “10)”
as §2
Enshi standard medium determined having the following composition (Table 18) was prepared. A DMSO solution of a chemical substance was dispensed by 4 μl to cluster tubes to a final concentration of 0.001 ppm to 10 ppm and the sterilized Enshi standard medium was dispensed by 600 μl and then the resulting solution was well mixed. 10-20 seeds of A. thaliana per cluster tube were sown in the cluster tubes. After culture at 22° C. for 10 days in bright light, the length of main roots (average main roots) took from seeds of A. thaliana was measured. An average of eight repeats was determined and the root growth rate was determined.
Root growth rate (%)=(Average main root length of chemical substance-treated section)/(Average main root length of control section)×100

[4] = test final concentration 2.5 ppm (concentration with highest root growth rate)
[5] = test final concentration 2.5 ppm (highest root growth rate)
[6] = test final concentration 1.25 ppm (concentration with highest root growth rate)
[7] = test final concentration 1.25 ppm (highest root growth rate)
[8] = test final concentration 10 ppm (concentration with highest root growth rate)
[9] = test final concentration 10 ppm (highest root growth rate)
[10] = test final concentration 5 ppm (concentration with highest root growth rate)
[11] = test final concentration 5 ppm (highest root growth rate)
[12] = test final concentration 0.625 ppm (concentration with highest root growth rate)
[13] = test final concentration 0.625 ppm (highest root growth rate)

T1 sequence (Q9C5U0 24-1080 S567G/T1018A): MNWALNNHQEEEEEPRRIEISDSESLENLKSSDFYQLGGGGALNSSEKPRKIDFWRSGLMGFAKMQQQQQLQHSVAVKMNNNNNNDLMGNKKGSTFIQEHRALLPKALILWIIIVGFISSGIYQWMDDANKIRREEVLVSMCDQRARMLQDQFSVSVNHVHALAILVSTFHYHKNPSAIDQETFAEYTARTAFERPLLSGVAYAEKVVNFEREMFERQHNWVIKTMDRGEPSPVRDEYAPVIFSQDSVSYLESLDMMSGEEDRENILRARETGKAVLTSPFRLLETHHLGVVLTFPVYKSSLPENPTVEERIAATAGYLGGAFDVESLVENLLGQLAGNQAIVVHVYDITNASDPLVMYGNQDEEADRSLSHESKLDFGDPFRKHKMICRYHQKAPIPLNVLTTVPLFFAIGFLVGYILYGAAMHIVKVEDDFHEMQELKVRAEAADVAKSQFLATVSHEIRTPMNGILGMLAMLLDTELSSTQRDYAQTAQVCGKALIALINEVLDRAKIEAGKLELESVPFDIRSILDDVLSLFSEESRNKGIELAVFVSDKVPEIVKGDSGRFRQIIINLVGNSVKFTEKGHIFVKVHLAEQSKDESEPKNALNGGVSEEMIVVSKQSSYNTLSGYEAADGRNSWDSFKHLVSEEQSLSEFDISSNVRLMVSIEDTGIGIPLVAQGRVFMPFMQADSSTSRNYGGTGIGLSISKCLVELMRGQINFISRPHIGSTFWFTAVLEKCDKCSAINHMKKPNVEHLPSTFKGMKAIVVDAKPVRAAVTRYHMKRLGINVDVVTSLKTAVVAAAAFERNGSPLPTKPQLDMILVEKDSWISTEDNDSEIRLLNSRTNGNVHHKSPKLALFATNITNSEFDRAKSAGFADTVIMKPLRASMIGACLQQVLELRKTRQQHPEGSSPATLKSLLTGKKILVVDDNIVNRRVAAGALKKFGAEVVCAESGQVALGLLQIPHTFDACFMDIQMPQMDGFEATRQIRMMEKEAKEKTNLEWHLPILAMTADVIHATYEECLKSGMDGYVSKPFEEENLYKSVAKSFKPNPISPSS

Compound	Relative growth rate (%) in test section of test substance to control section, Transformed cell TM182-CRE1 (cytokinin receptor CRE1)	Activity (%) of test substance for inhibiting intracellular signaling from plant-derived cytokinin receptor of cell (cytokinin receptor CRE1)	Relative growth rate (%) in test section of test substance to control section, Transformed cell TM182-p415CYC1 [2]	other results
Clc1nc(-c2ccccc2)c2cccc(Cl)c2n1 [Ia1-11, 2,8-dichloro-4-phenylquinazoline]				melting point: 154.4 °C
Clc1cc(Cl)c2nc(Cl)nc(-c3ccccc3)c2c1 [Ia1-12, 2,6,8-trichloro-4-phenylquinazoline]				melting point: 160.3 °C
SCCNc1nc(-c2ccccc2)c2cc(Cl)ccc2n1 [Ic3-13, 6-chloro-2-(2-mercaptoethylamino)-4-phenylquinazoline]				activity at 10 ppm (Arabidopsis thaliana [1]; Arabidopsis thaliana, 240 h, test final concentration 10 ppm (concentration with highest root growth rate)): 140%; melting point: 165.9 °C
CC(=CCNc1nc(-c2ccccc2)c2cc(Cl)ccc2n1)CO [Ic3-18]	4.0%	96.0%	105.3%	Root growth-promoting activity (root growth rate) (Arabidopsis thaliana [1]; [4]): 139.5%; Root growth-promoting activity (root growth rate) (Arabidopsis thaliana [3]; [5]): 139.5%
CCNc1nc(-c2ccccc2)c2cc(Cl)ccc2n1 [Ic3-24]	2.1%	97.9%	112.5%	Root growth-promoting activity (root growth rate) (Arabidopsis thaliana [1]; [6]): 122.8%; Root growth-promoting activity (root growth rate) (Arabidopsis thaliana [3]; [7]): 122.8%
C=CCNc1nc(-c2ccccc2)c2cc(Cl)ccc2n1 [Ic3-29]	1.6%	98.4%	92.7%	Root growth-promoting activity (root growth rate) (Arabidopsis thaliana [1]; [8]): 122.4%; Root growth-promoting activity (root growth rate) (Arabidopsis thaliana [3]; [9]): 122.4%
Clc1ccc2nc(NCC3CCCO3)nc(-c3ccccc3)c2c1 (stereo not drawn) [Ic3-37]	3.5%	96.5%	114.2%	Root growth-promoting activity (root growth rate) (Arabidopsis thaliana [1]; [10]): 138.5%; Root growth-promoting activity (root growth rate) (Arabidopsis thaliana [3]; [11]): 138.5%
COCCCNc1nc(-c2ccccc2)c2cc(Cl)ccc2n1 [Ic3-38]	1.2%	98.8%	99.4%	Root growth-promoting activity (root growth rate) (Arabidopsis thaliana [1]; [10]): 141.9%; Root growth-promoting activity (root growth rate) (Arabidopsis thaliana [3]; [11]): 141.9%
CC(O)CNc1nc(-c2ccccc2)c2cc(Cl)ccc2n1 (stereo not drawn) [Ic3-39]	−1.3%	101.3%	108.1%	Root growth-promoting activity (root growth rate) (Arabidopsis thaliana [1]; [8]): 169.0%; Root growth-promoting activity (root growth rate) (Arabidopsis thaliana [3]; [9]): 169.0%
OCCOCCNc1nc(-c2ccccc2)c2cc(Cl)ccc2n1 [Ic3-40]	0.7%	99.3%	123.4%	Root growth-promoting activity (root growth rate) (Arabidopsis thaliana [1]; [12]): 125.8%; Root growth-promoting activity (root growth rate) (Arabidopsis thaliana [3]; [13]): 125.8%
OCC(O)CNc1nc(-c2ccccc2)c2cc(Cl)ccc2n1 (stereo not drawn) [Ic3-41]	8.8%	91.2%	123.3%	Root growth-promoting activity (root growth rate) (Arabidopsis thaliana [1]; [10]): 134.5%; Root growth-promoting activity (root growth rate) (Arabidopsis thaliana [3]; [11]): 134.5%
COC(=O)CNc1nc(-c2ccccc2)c2cc(Cl)ccc2n1 [Ic3-42]	−0.7%	100.7%	111.5%	Root growth-promoting activity (root growth rate) (Arabidopsis thaliana [1]; [12]): 128.6%; Root growth-promoting activity (root growth rate) (Arabidopsis thaliana [3]; [13]): 128.6%
COC(=O)CCNc1nc(-c2ccccc2)c2cc(Cl)ccc2n1 [Ic3-43]	0.8%	99.2%	122.0%	Root growth-promoting activity (root growth rate) (Arabidopsis thaliana [1]; [4]): 137.9%; Root growth-promoting activity (root growth rate) (Arabidopsis thaliana [3]; [5]): 137.9%
CC(CO)Nc1nc(-c2ccccc2)c2cc(Cl)ccc2n1 (stereo not drawn) [Ic3-44]	7.0%	93.0%	101.4%	Root growth-promoting activity (root growth rate) (Arabidopsis thaliana [1]; [6]): 126.5%; Root growth-promoting activity (root growth rate) (Arabidopsis thaliana [3]; [7]): 126.5%
CCOCCCNc1nc(-c2ccccc2)c2cc(Cl)ccc2n1 [Ic3-46]	1.3%	98.7%	92.2%	Root growth-promoting activity (root growth rate) (Arabidopsis thaliana [1]; [4]): 121.6%; Root growth-promoting activity (root growth rate) (Arabidopsis thaliana [3]; [5]): 121.6%
OCCCNc1nc(-c2ccccc2)c2cccc(Cl)c2n1 [Ic11-1]	2.2%	97.8%	114.5%	Root growth-promoting activity (root growth rate) (Arabidopsis thaliana [1]; [10]): 143.9%; Root growth-promoting activity (root growth rate) (Arabidopsis thaliana [3]; [11]): 143.9%
OCCCNc1nc(-c2ccccc2)c2cc(Cl)cc(Cl)c2n1 [Ic12-1]	2.8%	97.2%	106.3%	Root growth-promoting activity (root growth rate) (Arabidopsis thaliana [1]; [4]): 184.6%; Root growth-promoting activity (root growth rate) (Arabidopsis thaliana [3]; [5]): 184.6%
Nc1nc(-c2ccccc2)c2cc(Cl)cc(Cl)c2n1 [Ic12-4, 2-amino-6,8-dichloro-4-phenylquinazoline]				melting point: 212.7 °C
